Data taken from patent US20250127162A1, “METHODS AND COMPOSITIONS FOR CONTROLLING PESTS IN RICE” (Globachem NV, priority 2022, published 2025).

Legend:
Format in all cases: in vivo
Rice = test: Phytotoxicity PHYGEN on rice (Example 1, Trials 3-4, Thailand); set-up: key: % leaf necrosis compared with untreated plants
Text: “Low Phytotoxicity” of pelargonic acid, as used herein means that the toxic effect on plants is absent or at such a level so as not to adversely impact the growth and/or yield of the plant under a given set of test conditions, e.g., at a given concentration of pelargonic acid. Phytotoxic effects may be measured in a number of different ways, for example, according to the principals set out in OEPP/EPPO Bulletin (2014) 44 (3), 265-273 “PP 1/135 (4) Phytotoxicity assessment”. The phytotoxic effect on plants may be assessed visually as a function of the percentage of discoloration to the leaves and/or the appearance of necrosis. When the pelargonic acid compositions are applied to the foliage of the rice plants in accordance with the teachings herein, will typically result in a level of phytotoxicity of less than 20%, preferably less than 15%, more preferably less than 10% necrosis of the leaves in comparison to untreated plants. Preferred uses of the invention will typically result in phytotoxicity of 7% or less, whilst the most preferred uses will typically result in phytotoxicity of 5% or less. The above values are approximate as any purely visual assessment is likely to contain a degree of subjectivity.
(§1) All applications were made with an EC formulation containing 650 g/L of pelargonic acid (e.g., 685 g/L of 95% purity pelargonic acid), an anionic emulsifier and a branched fatty acid ester solvent.
Application A was made to the crops at the beginning of infestations; for these trials, Stage BBCH 59; Application B was made 14 days after Application A.
Trial 3 was conducted in Thailand using a water volume of 500 L/ha of water per application unless otherwise indicated. Insect Damage (DAMINS %), Insect Damage (Number) and Phytotoxicity were assessed at various treatment evaluation intervals.
Trial 4 was conducted in Thailand using a water volume of 500 L/ha of water per application unless otherwise indicated. Insect Damage (DAMINS %), Insect Damage (Number) and Phytotoxicity were assessed at various treatment evaluation intervals.

Oryzaphagus oryzae = test: Rice field trials, number of Oryzaphagus oryzae (Example 2, Trials 1-2, Brazil); settings: 3 days after application; for Number of Oryzaphagus oryzae, Average: average of 4 repetitions; for Number of Oryzaphagus oryzae, Repetition A / Number of Oryzaphagus oryzae, Repetition B / Number of Oryzaphagus oryzae, Repetition C / Number of Oryzaphagus oryzae, Repetition D: one application
Method: as §1
Trials 1-2 assessing the use of pelargonic acid for controlling Oryzaphagus oryzae in rice were conducted in Brazil. One application was made 5 days after the first flood irrigation. Assessments of the number of Oryzaphagus oryzae were made three (3) days after application for each of the four (4) repetitions at each dose rate.

Diabrotica speciosa = test: Potato field trials, control of Diabrotica speciosa (Example 3); settings: 400 L water/ha, two applications 7 d apart, Actara 0.05 kg/ha
Text: as §1, with “solvent. […]. […] Potatoes—Diabrotica speciosa (Cucurbit beetle)-DIABSC [table] [table]” for “solvent.”

[1] = Trial 1, listed as PA 487.5 g/ha
[2] = Trial 1, listed as PA 1300 g/ha
[3] = Trial 2, listed as PA 487.5 g/ha
[4] = Trial 2, listed as PA 1300 g/ha

CCCCCCCCC(=O)O [PA 650 g/ha, pelargonic acid]
Phytotoxicity (PHYGEN) (Rice; Trial 3, 0 DAA, water volume 200 L/ha): 0
Phytotoxicity (PHYGEN) (Rice; Trial 3, 0 DAA, water volume 500 L/ha): 0
Phytotoxicity (PHYGEN) (Rice; Trial 3, 0 DAB, water volume 200 L/ha): 0
Phytotoxicity (PHYGEN) (Rice; Trial 3, 0 DAB, water volume 500 L/ha): 0
Phytotoxicity (PHYGEN) (Rice; Trial 3, 7 DAA, water volume 200 L/ha): 0
Phytotoxicity (PHYGEN) (Rice; Trial 3, 7 DAA, water volume 500 L/ha): 0
Phytotoxicity (PHYGEN) (Rice; Trial 3, 7 DAB, water volume 200 L/ha): 0
Phytotoxicity (PHYGEN) (Rice; Trial 3, 7 DAB, water volume 500 L/ha): 0
Phytotoxicity (PHYGEN) (Rice; Trial 3, 10 DAA, water volume 200 L/ha): 0
Phytotoxicity (PHYGEN) (Rice; Trial 3, 10 DAA, water volume 500 L/ha): 0
Phytotoxicity (PHYGEN) (Rice; Trial 3, 10 DAB, water volume 200 L/ha): 0
Phytotoxicity (PHYGEN) (Rice; Trial 3, 10 DAB, water volume 500 L/ha): 0
Phytotoxicity (PHYGEN) (Rice; Trial 3, 14 DAB, water volume 200 L/ha): 0
Phytotoxicity (PHYGEN) (Rice; Trial 3, 14 DAB, water volume 500 L/ha): 0
Phytotoxicity (PHYGEN) (Rice; Trial 3, 21 DAB, water volume 200 L/ha): 0
Phytotoxicity (PHYGEN) (Rice; Trial 3, 21 DAB, water volume 500 L/ha): 0
Phytotoxicity (PHYGEN) (Rice; Trial 4, 0 DAA, water volume 200 L/ha): 0
Phytotoxicity (PHYGEN) (Rice; Trial 4, 0 DAA, water volume 500 L/ha): 0
Phytotoxicity (PHYGEN) (Rice; Trial 4, 0 DAB, water volume 200 L/ha): 0
Phytotoxicity (PHYGEN) (Rice; Trial 4, 0 DAB, water volume 500 L/ha): 0
Phytotoxicity (PHYGEN) (Rice; Trial 4, 7 DAA, water volume 200 L/ha): 0
Phytotoxicity (PHYGEN) (Rice; Trial 4, 7 DAA, water volume 500 L/ha): 0
Phytotoxicity (PHYGEN) (Rice; Trial 4, 7 DAB, water volume 200 L/ha): 0
Phytotoxicity (PHYGEN) (Rice; Trial 4, 7 DAB, water volume 500 L/ha): 0
Phytotoxicity (PHYGEN) (Rice; Trial 4, 10 DAA, water volume 200 L/ha): 0
Phytotoxicity (PHYGEN) (Rice; Trial 4, 10 DAA, water volume 500 L/ha): 0
Phytotoxicity (PHYGEN) (Rice; Trial 4, 10 DAB, water volume 200 L/ha): 0
Phytotoxicity (PHYGEN) (Rice; Trial 4, 10 DAB, water volume 500 L/ha): 0
Phytotoxicity (PHYGEN) (Rice; Trial 4, 14 DAB, water volume 200 L/ha): 0
Phytotoxicity (PHYGEN) (Rice; Trial 4, 14 DAB, water volume 500 L/ha): 0
Phytotoxicity (PHYGEN) (Rice; Trial 4, 21 DAB, water volume 200 L/ha): 0
Phytotoxicity (PHYGEN) (Rice; Trial 4, 21 DAB, water volume 500 L/ha): 0
E % (Oryzaphagus oryzae; Trial 1): 90%
Number of Oryzaphagus oryzae, Average (Oryzaphagus oryzae; Trial 1): 0.25 b
Number of Oryzaphagus oryzae, Average (Oryzaphagus oryzae; [1]): 0.5 b
Number of Oryzaphagus oryzae, Average (Oryzaphagus oryzae; Trial 1, listed as PA 975 g/ha): 0.25 b
Number of Oryzaphagus oryzae, Average (Oryzaphagus oryzae; [2]): 0 b
E % (Oryzaphagus oryzae; [1]): 80%
E % (Oryzaphagus oryzae; Trial 1, listed as PA 975 g/ha): 90%
E % (Oryzaphagus oryzae; [2]): 100%
Number of Oryzaphagus oryzae, Repetition A (Oryzaphagus oryzae; Trial 1): 1
Number of Oryzaphagus oryzae, Repetition B (Oryzaphagus oryzae; Trial 1): 0
Number of Oryzaphagus oryzae, Repetition C (Oryzaphagus oryzae; Trial 1): 0
Number of Oryzaphagus oryzae, Repetition D (Oryzaphagus oryzae; Trial 1): 0
Number of Oryzaphagus oryzae, Repetition A (Oryzaphagus oryzae; [1]): 0
Number of Oryzaphagus oryzae, Repetition B (Oryzaphagus oryzae; [1]): 1
Number of Oryzaphagus oryzae, Repetition C (Oryzaphagus oryzae; [1]): 1
Number of Oryzaphagus oryzae, Repetition D (Oryzaphagus oryzae; [1]): 0
Number of Oryzaphagus oryzae, Repetition A (Oryzaphagus oryzae; Trial 1, listed as PA 975 g/ha): 0
Number of Oryzaphagus oryzae, Repetition B (Oryzaphagus oryzae; Trial 1, listed as PA 975 g/ha): 0
Number of Oryzaphagus oryzae, Repetition C (Oryzaphagus oryzae; Trial 1, listed as PA 975 g/ha): 0
Number of Oryzaphagus oryzae, Repetition D (Oryzaphagus oryzae; Trial 1, listed as PA 975 g/ha): 1
Number of Oryzaphagus oryzae, Repetition A (Oryzaphagus oryzae; [2]): 0
Number of Oryzaphagus oryzae, Repetition B (Oryzaphagus oryzae; [2]): 0
Number of Oryzaphagus oryzae, Repetition C (Oryzaphagus oryzae; [2]): 0
Number of Oryzaphagus oryzae, Repetition D (Oryzaphagus oryzae; [2]): 0
E % (Oryzaphagus oryzae; Trial 2): 77.78%
Number of Oryzaphagus oryzae, Average (Oryzaphagus oryzae; Trial 2): 0.5 ab
Number of Oryzaphagus oryzae, Average (Oryzaphagus oryzae; [3]): 0.75 ab
Number of Oryzaphagus oryzae, Average (Oryzaphagus oryzae; Trial 2, listed as PA 975 g/ha): 0.25 b
Number of Oryzaphagus oryzae, Average (Oryzaphagus oryzae; [4]): 0 b
E % (Oryzaphagus oryzae; [3]): 66.67%
E % (Oryzaphagus oryzae; Trial 2, listed as PA 975 g/ha): 88.89%
E % (Oryzaphagus oryzae; [4]): 100%
Number of Oryzaphagus oryzae, Repetition A (Oryzaphagus oryzae; Trial 2): 1
Number of Oryzaphagus oryzae, Repetition B (Oryzaphagus oryzae; Trial 2): 0
Number of Oryzaphagus oryzae, Repetition C (Oryzaphagus oryzae; Trial 2): 0
Number of Oryzaphagus oryzae, Repetition D (Oryzaphagus oryzae; Trial 2): 1
Number of Oryzaphagus oryzae, Repetition A (Oryzaphagus oryzae; [3]): 0
Number of Oryzaphagus oryzae, Repetition B (Oryzaphagus oryzae; [3]): 1
Number of Oryzaphagus oryzae, Repetition C (Oryzaphagus oryzae; [3]): 2
Number of Oryzaphagus oryzae, Repetition D (Oryzaphagus oryzae; [3]): 0
Number of Oryzaphagus oryzae, Repetition A (Oryzaphagus oryzae; Trial 2, listed as PA 975 g/ha): 1
Number of Oryzaphagus oryzae, Repetition B (Oryzaphagus oryzae; Trial 2, listed as PA 975 g/ha): 0
Number of Oryzaphagus oryzae, Repetition C (Oryzaphagus oryzae; Trial 2, listed as PA 975 g/ha): 0
Number of Oryzaphagus oryzae, Repetition D (Oryzaphagus oryzae; Trial 2, listed as PA 975 g/ha): 0
Number of Oryzaphagus oryzae, Repetition A (Oryzaphagus oryzae; [4]): 0
Number of Oryzaphagus oryzae, Repetition B (Oryzaphagus oryzae; [4]): 0
Number of Oryzaphagus oryzae, Repetition C (Oryzaphagus oryzae; [4]): 0
Number of Oryzaphagus oryzae, Repetition D (Oryzaphagus oryzae; [4]): 0
# Insects, % UNCK (Diabrotica speciosa; Trial 1, potato, 3 DAA): 67.74b % UNCK
# Insects, % UNCK (Diabrotica speciosa; Trial 1, potato, 3 DAA, listed as PA 487.5 g/ha): 48.39ab % UNCK
# Insects, % UNCK (Diabrotica speciosa; Trial 1, potato, 3 DAA, listed as PA 812.5 g/ha): 64.52b % UNCK
# Insects, % UNCK (Diabrotica speciosa; Trial 1, potato, 3 DAA, listed as PA 975 g/ha): 74.19b % UNCK
# Insects, % UNCK (Diabrotica speciosa; Trial 1, potato, 3 DAB): 84.21c % UNCK
# Insects, % UNCK (Diabrotica speciosa; Trial 1, potato, 3 DAB, listed as PA 487.5 g/ha): 34.2b1 % UNCK
# Insects, % UNCK (Diabrotica speciosa; Trial 1, potato, 3 DAB, listed as PA 812.5 g/ha): 86.84c % UNCK
# Insects, % UNCK (Diabrotica speciosa; Trial 1, potato, 3 DAB, listed as PA 975 g/ha): 84.21c % UNCK
# Insects, % UNCK (Diabrotica speciosa; Trial 1, potato, 7 DAA): 55.88abc % UNCK
# Insects, % UNCK (Diabrotica speciosa; Trial 1, potato, 7 DAA, listed as PA 487.5 g/ha): 29.4ab % UNCK
# Insects, % UNCK (Diabrotica speciosa; Trial 1, potato, 7 DAA, listed as PA 812.5 g/ha): 61.76bc % UNCK
# Insects, % UNCK (Diabrotica speciosa; Trial 1, potato, 7 DAA, listed as PA 975 g/ha): 64.71bc % UNCK
# Insects, % UNCK (Diabrotica speciosa; Trial 1, potato, 7 DAB): 81.08b % UNCK
# Insects, % UNCK (Diabrotica speciosa; Trial 1, potato, 7 DAB, listed as PA 487.5 g/ha): 54.05b % UNCK
# Insects, % UNCK (Diabrotica speciosa; Trial 1, potato, 7 DAB, listed as PA 812.5 g/ha): 83.78b % UNCK
# Insects, % UNCK (Diabrotica speciosa; Trial 1, potato, 7 DAB, listed as PA 975 g/ha): 83.78b % UNCK
# Insects, % UNCK (Diabrotica speciosa; Trial 2, potato, 3 DAA): 61.90bc % UNCK
# Insects, % UNCK (Diabrotica speciosa; Trial 2, potato, 3 DAA, listed as PA 487.5 g/ha): 38.10b % UNCK
# Insects, % UNCK (Diabrotica speciosa; Trial 2, potato, 3 DAA, listed as PA 812.5 g/ha): 80.95cd % UNCK
# Insects, % UNCK (Diabrotica speciosa; Trial 2, potato, 3 DAA, listed as PA 975 g/ha): 95.24de % UNCK
# Insects, % UNCK (Diabrotica speciosa; Trial 2, potato, 3 DAB): 25.00ab % UNCK
# Insects, % UNCK (Diabrotica speciosa; Trial 2, potato, 3 DAB, listed as PA 487.5 g/ha): 25.00ab % UNCK
# Insects, % UNCK (Diabrotica speciosa; Trial 2, potato, 3 DAB, listed as PA 812.5 g/ha): 28.57b % UNCK
# Insects, % UNCK (Diabrotica speciosa; Trial 2, potato, 3 DAB, listed as PA 975 g/ha): 53.57c % UNCK
# Insects, % UNCK (Diabrotica speciosa; Trial 2, potato, 7 DAA): 38.10b % UNCK
# Insects, % UNCK (Diabrotica speciosa; Trial 2, potato, 7 DAA, listed as PA 487.5 g/ha): 23.81ab % UNCK
# Insects, % UNCK (Diabrotica speciosa; Trial 2, potato, 7 DAA, listed as PA 812.5 g/ha): 85.71c % UNCK
# Insects, % UNCK (Diabrotica speciosa; Trial 2, potato, 7 DAA, listed as PA 975 g/ha): 100.00d % UNCK
# Insects, % UNCK (Diabrotica speciosa; Trial 2, potato, 7 DAB): 87.50bc % UNCK
# Insects, % UNCK (Diabrotica speciosa; Trial 2, potato, 7 DAB, listed as PA 487.5 g/ha): 70.83b % UNCK
# Insects, % UNCK (Diabrotica speciosa; Trial 2, potato, 7 DAB, listed as PA 812.5 g/ha): 91.67c % UNCK
# Insects, % UNCK (Diabrotica speciosa; Trial 2, potato, 7 DAB, listed as PA 975 g/ha): 100.00c % UNCK
# Insects, % UNCK (Diabrotica speciosa; Trial 2, potato, 10 DAB): 86.96bc % UNCK
# Insects, % UNCK (Diabrotica speciosa; Trial 2, potato, 10 DAB, listed as PA 487.5 g/ha): 68.57b % UNCK
# Insects, % UNCK (Diabrotica speciosa; Trial 2, potato, 10 DAB, listed as PA 812.5 g/ha): 91.30c % UNCK
# Insects, % UNCK (Diabrotica speciosa; Trial 2, potato, 10 DAB, listed as PA 975 g/ha): 100.00c % UNCK
